Data: patent publication US10233146B2, “Acetylenic cyanoenones as therapeutics for inflammation and carcinogenesis” (THE RESEARCH FOUNDATION FOR THE STATE UNIVERSITY OF NEW YORK, priority 2015, dated 2019)

How the values were obtained:
NQO1 [1] = test: Induction of NQO1 in Hepa1c1c7 murine hepatoma cells; type: cell-based; details: Mus musculus, Hepa-1c1c7; Hepa1c1c7 cells, 48 h treatment; read-out: NQO1 CD (concentration required to double the specific enzyme activity of NQO1)
Excerpt: In this assay, the concentration required to double (CD value) the specific enzyme activity of NQO1 is used to quantify inducer potency. […] Dinkova-KOstova, A. T. et al. 2012). […] These compounds may be more robust inducers than monocyclic compounds. [table]

NQO1 [2] = details: Hepa1c1c murine hepatoma cells; cited from earlier work
[3] = test system: NQO1 and glutathione S-transferases; details: mice, 9.2 mg per kg of food in the diet; cited from earlier work
Keap1/Nrf2/ARE pathway = details: topical daily 200 nmol, five days per week for four weeks, cited from earlier work

C#C[C@]12C=C(C#N)C(=O)C=C1[C@@]1(C)C=C(C#N)C(=O)C(C)(C)[C@@H]1CC2 (racemic) [TBE-31 (1), (±)-(4bS,8aR,10aS)-10a-ethynyl-4b,8,8-trimethyl-3,7-dioxo-3,4b,7,8,8a,9,10, 10a-octahydrophenanthrene-2,6-dicarbonitrile]
EC (2-fold NQO1 activity) (NQO1 [1]): 0.0009 µM | IC50 (iNOS): 1 nM | upregulation of NQO1 (NQO1 [2]): upregulates NAD(P)H: quinone oxidoreductase 1 (NQO1) | induction of NQO1 and glutathione S-transferases in the stomach, skin, and liver [3]: profoundly and dose-dependently induces | 6-thioguanine incorporation into DNA of skin, blood, and liver (Keap1/Nrf2/ARE pathway; azathioprine-treated mice): decreases | systemic induction of the Keap1/Nrf2/ARE pathway (Keap1/Nrf2/ARE pathway): robust systemic induction
